Measured values from ChEMBL document CHEMBL1150718, “Antineoplastic agents, 122. Constituents of Combretum caffrum” (1987).
≈ marks a conversion by molar mass, not a printed value. Calls of active or inactive are those of the source. The rule behind the calls is not given here.

Tests used:
P388 [1] = assay: Growth inhibition of mouse P388 cells; assay type: functional
P388 [2] = assay: In vivo cytotoxicity against mouse P388 cells at 5 mg/kg; assay type: functional, organism-based; set-up: dose 5 mg/kg
[3] = Cytotoxicity against rat 9ASK cells at 0.1 ug/ml; assay type: functional
[4] = Antimitotic activity against rat 9ASK cells assessed as reversal of astrocyte morphology at 0.1 ug/ml; assay type: functional
[5] = Antimitotic activity against rat 9ASK cells assessed as reversal of astrocyte morphology at 1 to 100 ug/ml; assay type: functional

Row | SMILES | ED50 (P388 [1]) | Activity (P388 [2]) | Activity [3] [%] | EC50 (P388 [1]; read-out: ED50 (the source's name)) [µg/mL] | Activity [4] [%] | Activity [5] [%]
1 | COc1cc2c(=O)oc3c(OC)c(O)cc4c(=O)oc(c1OC)c2c34 | inactive |  |  |  |  | 
2 | COc1ccc(-c2cc(=O)c3c(O)cc(O)cc3o2)cc1 | inactive |  |  |  |  | 
3 | COc1ccc(C[C@@H](O)c2cc(OC)c(OC)c(OC)c2)cc1O [COMBRETASTATIN] |  | Active | 0 | 0.011 (≈ 0.0329 µM) | 51 | 71
